Tested on: 616215-338-R-J1-PDC complex spheroid growth, % test/control
Assay: Anticancer human tumor 616215-338-R-J1-PDC patient-derived colon adenocarcinoma cell line growth inhibition [Asc]
Conditions: for IC50: curve of first compound; for viability, T/C: stronger effect = lower value
Procedure, shortened: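 Stromal components (HUVEC and hMSC) are co-assembled with the cancer cells into multicellular spheroids. Drugs are then added singly or paired, at concentrations falling by half-log increments from a clinically achievable maximum, capped at 10 microM without known Cmax.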
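Further: spheroids exposed to agents for seven days before readout.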
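Wherever viability, T/C is given: 100% = DMSO vehicle control viability.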

Cc1nc(N2CCC3(CC2)COC(C)C3N)c(CO)nc1Sc1ccnc(N)c1Cl (stereo not given) + CCN1C(C(=O)NC23CCC(C(=O)O)(CC2)CC3)C(c2cccc(Cl)c2F)C2(C(=O)Nc3cc(Cl)ccc32)C12CCCCC2
IC50 (second compound 0.03 µM): > 3 µM | IC50 (second compound 0.0949 µM): > 3 µM | IC50 (second compound 0.3 µM): 0.303 µM | IC50 (second compound 0.949 µM): 0.338 µM | IC50 (second compound 3 µM): 0.0403 µM | viability, T/C (second compound 0.03 µM, first compound 0.00949 µM): 99.4% | viability, T/C (second compound 0.03 µM, first compound 0.03 µM): 102% | viability, T/C (second compound 0.03 µM, first compound 0.0949 µM): 98.4% | viability, T/C (second compound 0.03 µM, first compound 0.3 µM): 91.8% | viability, T/C (second compound 0.03 µM, first compound 0.949 µM): 86.3% | viability, T/C (second compound 0.03 µM, first compound 3 µM): 74.4% | viability, T/C (second compound 0.0949 µM, first compound 0.00949 µM): 101% | viability, T/C (second compound 0.0949 µM, first compound 0.03 µM): 89.2% | viability, T/C (second compound 0.0949 µM, first compound 0.0949 µM): 84.1% | viability, T/C (second compound 0.0949 µM, first compound 0.3 µM): 87.2% | viability, T/C (second compound 0.0949 µM, first compound 0.949 µM): 80.5% | viability, T/C (second compound 0.0949 µM, first compound 3 µM): 64.7% | viability, T/C (second compound 0.3 µM, first compound 0.00949 µM): 69.8% | viability, T/C (second compound 0.3 µM, first compound 0.03 µM): 65.6% | viability, T/C (second compound 0.3 µM, first compound 0.0949 µM): 65.1% | viability, T/C (second compound 0.3 µM, first compound 0.3 µM): 49.4% | viability, T/C (second compound 0.3 µM, first compound 0.949 µM): 39.2% | viability, T/C (second compound 0.3 µM, first compound 3 µM): 35% | viability, T/C (second compound 0.949 µM, first compound 0.00949 µM): 65.9% | viability, T/C (second compound 0.949 µM, first compound 0.03 µM): 65% | viability, T/C (second compound 0.949 µM, first compound 0.0949 µM): 66.6% | viability, T/C (second compound 0.949 µM, first compound 0.3 µM): 48.3% | viability, T/C (second compound 0.949 µM, first compound 0.949 µM): 37.7% | viability, T/C (second compound 0.949 µM, first compound 3 µM): 24.8% | viability, T/C (second compound 3 µM, first compound 0.00949 µM): 53.3% | viability, T/C (second compound 3 µM, first compound 0.03 µM): 49.2% | viability, T/C (second compound 3 µM, first compound 0.0949 µM): 47.8% | viability, T/C (second compound 3 µM, first compound 0.3 µM): 38.8% | viability, T/C (second compound 3 µM, first compound 0.949 µM): 23.9% | viability, T/C (second compound 3 µM, first compound 3 µM): 11.6%

— PubChem BioAssay AID1963448 (Molecular Pharmacology Branch, DTP, NCI, 2024)
